Data reported in ChEMBL document CHEMBL2034899, “5-Arylbenzothiadiazine Type Compounds as Positive Allosteric Modulators of AMPA/Kainate Receptors” (ACS Med Chem Lett, 2012).
The source made the active and inactive calls. The calls are words filed in the database; no cut-off is given here.

How the values were obtained:
Cerebral cortex neuron [1] = assay: Positive allosteric modulation at AMPA receptor in primary cortical neurons assessed as potentiation of kainate-induced current at 10 uM by patch clamp analysis; format: cell-based
Cerebral cortex neuron [2] = assay: Positive allosteric modulation at AMPA receptor in primary cortical neurons assessed as potentiation of kainate-induced current at 100 uM by patch clamp analysis
[3] = Positive allosteric modulation at AMPA receptor in primary cortical neurons assessed as potentiation of kainate-induced current by patch clamp analysis; format: cell-based; conditions: Cerebral cortex neuron
[4] = Drug uptake in mouse nucleus accumbens assessed as 7-chloro-5-(3-furyl)-3- methyl-4H-1,2,4-benzothiadiazine 1,1-dioxide level at 20 mg/kg, ip measured after 1 hr; format: ADME, organism-based; parameters: dose 20 mg/kg, route intraperitoneal; conditions: in vivo, read-out: Drug uptake
[5] = Drug uptake in mouse nucleus accumbens at 20 mg/kg, ip measured after 2 hrs; format: ADME, organism-based; parameters: dose 20 mg/kg, route intraperitoneal; conditions: in vivo
[6] = Drug uptake in mouse nucleus accumbens at 20 mg/kg, ip measured after 40 mins; format: ADME, organism-based; parameters: dose 20 mg/kg, route intraperitoneal; conditions: read-out: Drug uptake
[7] = Drug uptake in mouse nucleus accumbens assessed as 7-chloro-5-(3-furyl)-3- methyl-4H-1,2,4-benzothiadiazine 1,1-dioxide level at 20 mg/kg, ip measured after 2 hrs; format: ADME, organism-based; parameters: dose 20 mg/kg, route intraperitoneal; conditions: in vivo
[8] = Drug uptake in mouse nucleus accumbens assessed as 7-chloro-5-(3-furyl)-3- methyl-4H-1,2,4-benzothiadiazine 1,1-dioxide level at 20 mg/kg, ip measured after 140 mins; format: ADME, organism-based; parameters: dose 20 mg/kg, route intraperitoneal; conditions: in vivo

SMILES	Activity (Cerebral cortex neuron [1]) [%]	Activity (Cerebral cortex neuron [2])	other results
O=C(O)c1ccc(-c2cc(Cl)cc3c2NCNS3(=O)=O)cc1	< 10	inactive	
O=S1(=O)NCNc2c(-c3ccco3)cc(Cl)cc21	20	inactive	
CC1Nc2c(-c3cccc(N)c3)cc(Cl)cc2S(=O)(=O)N1 (stereo not given)	< 10	inactive	
Nc1cccc(-c2cc(Cl)cc3c2NCNS3(=O)=O)c1	< 10	inactive	
CC1Nc2c(-c3ccco3)cc(Cl)cc2S(=O)(=O)N1 (stereo not given)	80	inactive	
CC1Nc2c(-c3cccs3)cc(Cl)cc2S(=O)(=O)N1 (stereo not given)	< 10	inactive	
CCC1Nc2c(-c3ccco3)cc(Cl)cc2S(=O)(=O)N1 (stereo not given)	< 10	inactive	
CC1Nc2c(-c3ccoc3)cc(Cl)cc2S(=O)(=O)N1 (stereo not given)	358	inactive	EC50 [3]: 1300 nM; concentration [4]: 8 µM; Drug uptake [5]: Not Active; concentration at 40 min [6]: 37 µM; Drug uptake [7]: Active; Drug uptake [8]: Not Active
CC1Nc2c(-c3ccsc3)cc(Cl)cc2S(=O)(=O)N1 (stereo not given)	214	inactive	
CC1CN2c3c1cc(Cl)cc3S(=O)(=O)NC2C (racemic)	53	inactive	
CC1Nc2c(-c3ccc(C(=O)O)cc3)cc(Cl)cc2S(=O)(=O)N1 (stereo not given)	< 10	inactive	
CCC1Nc2c(-c3ccc(C(=O)O)cc3)cc(Cl)cc2S(=O)(=O)N1 (stereo not given)	< 10	inactive	
